Test results from ChEMBL document CHEMBL1201862, “PubChem BioAssay data set” (2004).
Active and inactive are the calls of the source.

Tests used:
Genome polyprotein = Genome polyprotein (dengue virus type 2, UniProt P29990); experiment: flavivirus cap methylation enzyme inhibition – biochemical, confirmation dose response, primary screen (AID 588689); format: functional
[1] = target: FAD-linked sulfhydryl oxidase ALR (Homo sapiens, UniProt P55789); experiment: ALR-catalysed DTT oxidation blockers – biochemical, H2O2 detection, luminescence, cherry-pick, dose response (AID 493248)
Large T antigen = Large T antigen (Simian virus 40, UniProt P03070); format: functional, Betapolyomavirus macacae;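 also: Confirmatory-stage PubChem screen for compounds that inhibit SV40 T antigen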
HT-1080 = experiment: HT1080 cell viability loss – fluorescence readout (AID 620); format: functional, cell-based; conditions: Homo sapiens
[2] = target: T1, Microphthalmia-associated transcription factor (Homo sapiens, UniProt O75030); experiment: reducers of TRPM1 reporter luminescence, concentration series – cell-based, SK-MEL-5, cherry-picked, set 3, MITF inhibitor project, dose response (AID 493073); format: functional;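 also: SK-MEL-5 melanoma cells with luciferase driven by the MITF target TRPM1 promoter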
T1 sequence (O75030 whole entry): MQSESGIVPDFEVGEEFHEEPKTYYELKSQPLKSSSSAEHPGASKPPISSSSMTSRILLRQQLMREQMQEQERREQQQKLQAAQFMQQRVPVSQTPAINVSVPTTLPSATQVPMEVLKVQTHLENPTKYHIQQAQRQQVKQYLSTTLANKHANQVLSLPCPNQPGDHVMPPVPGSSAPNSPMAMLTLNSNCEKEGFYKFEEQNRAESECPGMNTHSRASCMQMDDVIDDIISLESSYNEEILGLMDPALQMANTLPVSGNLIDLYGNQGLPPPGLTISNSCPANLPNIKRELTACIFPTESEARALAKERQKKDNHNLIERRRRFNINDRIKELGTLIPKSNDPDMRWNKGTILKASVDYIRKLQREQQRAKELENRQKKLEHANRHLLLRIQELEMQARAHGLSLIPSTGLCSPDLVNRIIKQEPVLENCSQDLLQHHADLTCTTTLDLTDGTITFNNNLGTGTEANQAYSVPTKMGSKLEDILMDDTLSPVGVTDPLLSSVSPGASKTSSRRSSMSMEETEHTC

[3] = alpha-synuclein stem-loop luciferase translation blockers – H4 neuroglioma cells, luminescence, confirmation (AID 1988); format: functional, cell-based
[4] = Luminescence Cell-Based Dose Response HTS to Identify Inhibitors of 5'UTR Stem-Loop Driven Prion Protein mRNA Translation in H4 Neuroglioblastoma Cells. [Related pubchem assays: 1827 (Project Summary), 1813 (Primary HTS)]; format: functional
[5] = target: T2, Luciferin 4-monooxygenase (Photinus pyralis, UniProt P08659); experiment: Counter Screen for Luciferase-based Assay Positives. [Related pubchem assays: 620, 618, 411 ]
[6] = luciferase reporter signal suppression in cells – H4 neuroglioma cells, luminescence, dose response (AID 1990); format: functional, cell-based
[7] = target: T3, Ubiquitin-conjugating enzyme E2 N (Homo sapiens, UniProt P61088); format: functional;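 also: Dose-response confirmation in a TR-FRET assay detecting UBC13-driven polyubiquitin chain formation, inhibition measured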
T3 sequence (P61088 whole entry): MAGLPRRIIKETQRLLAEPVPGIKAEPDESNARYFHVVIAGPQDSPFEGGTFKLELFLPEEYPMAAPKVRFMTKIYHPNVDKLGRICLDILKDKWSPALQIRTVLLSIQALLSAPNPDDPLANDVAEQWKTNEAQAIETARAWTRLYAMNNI

[8] = target: Voltage-dependent T-type calcium channel subunit alpha-1H (Homo sapiens, UniProt O95180); format: functional;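 also: channel activity triggered by adding a high calcium stimulation buffer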
[9] = target: T2, Luciferin 4-monooxygenase; experiment: inhibition of purified Photinus pyralis luciferase – biochemical, luminescence, dose response (AID 1891)
[10] = Luminescence Cell-Based Dose Confirmation HTS to Identify Inhibitors of Platelet Dense Granule Release. [Related pubchem assays: 1663 (Primary HTS), 1678 (Summary of Project)]; format: functional
[11] = target: DNA dC->dU-editing enzyme APOBEC-3A (Homo sapiens, UniProt P31941); experiment: Dose Response confirmation of small molecule APOBEC3A DNA Deaminase Inhibitors via a fluorescence-based single-stranded DNA deaminase assay. [Related pubchem assays (depositor defined):AID493011, AID493024]; format: functional
[12] = target: T4, DNA dC->dU-editing enzyme APOBEC-3G (Homo sapiens, UniProt Q9HC16); format: functional
[13] = viability of uninfected HEp-2 cells – cell-based, HTS, cytotoxicity control for RSV inhibitor project, dose response (AID 2410); format: functional; conditions: human respiratory syncytial virus
SUMO-activating enzyme [14] = target: T5, SUMO-activating enzyme (Homo sapiens, UniProt Q9UBT2); experiment: blockers of SAE1/SAE2–UBC9 SUMO transfer – biochemical, HTRF, uHTS, primary screen (AID 2006); format: protein-complex assay
SUMO-activating enzyme [15] = target: T5, SUMO-activating enzyme; experiment: blockers of UBC9-mediated SUMO conjugation – biochemical, AlphaScreen, SUMOylation inhibitor project, confirmation (AID 2018); format: functional
[16] = target: Peroxisome proliferator-activated receptor gamma/Nuclear receptor corepressor 2 (Homo sapiens, UniProt P37231+Q9Y618); format: functional
[17] = target: Photoreceptor-specific nuclear receptor (Homo sapiens, UniProt Q9Y5X4); format: functional;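 also: potency for compounds that break the NR2E3 corepressor complex and count as activators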
[18] = NIH3T3 cell viability loss – ATP luminescence, mouse fibroblasts, counter-screen, dose response (AID 2010); format: functional, cell-based;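 also: cells exposed to compound for about 90 hours before reading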
[19] = Trypanosoma cruzi growth suppression in host cells – NIH3T3 host cells, beta-gal luminescence, confirmation (AID 2044); format: functional, cell-based;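 also: intracellular parasites grown in NIH/3T3 mouse fibroblasts as host cells; luminescent beta-galactosidase reporter signal from transgenic T. cruzi replicating inside host cells; inhibitors lower the luminescence signal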
HEK293 = experiment: EBV LMP1 TES2 canonical NF-kB signalling blockers – cell-based, HEK293, luciferase, cherry-pick, dose response (AID 588343); format: functional; conditions: Homo sapiens
[20] = Luminescence Cell-Based Dose Retest to Confirm Inhibitors of Cancer Stem Cells. [Related pubchem assays (depositor defined):AID2717, AID2721]; format: functional; conditions: Homo sapiens
[21] = target: T4, DNA dC->dU-editing enzyme APOBEC-3G; experiment: Dose Response confirmation of small molecule APOBEC3G DNA Deaminase Inhibitors via a fluorescence-based single-stranded DNA deaminase assay. [Related pubchem assays (depositor defined):AID493012, AID493028]; format: functional
Protein skinhead-1 = target: T6, Protein skinhead-1 (Caenorhabditis elegans, UniProt P34707); format: functional
T6 sequence (P34707 whole entry): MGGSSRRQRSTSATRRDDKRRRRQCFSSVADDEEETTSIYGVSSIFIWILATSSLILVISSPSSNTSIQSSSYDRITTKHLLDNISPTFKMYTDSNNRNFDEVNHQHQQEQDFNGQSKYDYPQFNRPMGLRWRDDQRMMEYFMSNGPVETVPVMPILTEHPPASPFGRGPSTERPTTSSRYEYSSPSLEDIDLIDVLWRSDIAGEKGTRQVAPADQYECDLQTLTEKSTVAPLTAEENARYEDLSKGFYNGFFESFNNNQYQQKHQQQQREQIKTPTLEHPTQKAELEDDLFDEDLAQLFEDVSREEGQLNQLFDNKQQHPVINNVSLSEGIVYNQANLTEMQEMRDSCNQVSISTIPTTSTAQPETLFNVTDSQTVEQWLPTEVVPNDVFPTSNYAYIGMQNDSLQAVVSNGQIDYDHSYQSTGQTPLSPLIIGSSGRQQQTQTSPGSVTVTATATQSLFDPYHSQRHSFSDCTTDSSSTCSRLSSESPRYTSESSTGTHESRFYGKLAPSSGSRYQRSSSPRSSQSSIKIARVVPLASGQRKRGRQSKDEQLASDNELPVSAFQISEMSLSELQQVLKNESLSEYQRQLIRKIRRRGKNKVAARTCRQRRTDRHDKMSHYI

[22] = target: T7, Carboxy-terminal domain RNA polymerase II polypeptide A small phosphatase 1 (Homo sapiens, UniProt Q9GZU7); experiment: CTDSP1 inhibitors, concentration-response, biochemical, absorbance readout, ultra-high-throughput screen actives (AID 540297); format: functional
T7 sequence (Q9GZU7 whole entry): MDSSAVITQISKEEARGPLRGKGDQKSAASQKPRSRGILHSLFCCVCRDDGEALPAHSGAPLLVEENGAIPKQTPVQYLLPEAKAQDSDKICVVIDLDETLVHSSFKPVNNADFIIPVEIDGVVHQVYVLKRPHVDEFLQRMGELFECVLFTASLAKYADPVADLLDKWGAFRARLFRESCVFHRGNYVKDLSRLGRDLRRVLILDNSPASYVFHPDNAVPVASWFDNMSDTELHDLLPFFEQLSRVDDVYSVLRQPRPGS

Cytochrome P450 2C9 = Cytochrome P450 2C9 (Homo sapiens, UniProt P11712)
Cytochrome P450 1A2 = target: T8, Cytochrome P450 1A2 (Homo sapiens, UniProt P05177);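 also: PubChem cytochrome P450 panel assay, CYP1A2 panel member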
T8 sequence (P05177 whole entry): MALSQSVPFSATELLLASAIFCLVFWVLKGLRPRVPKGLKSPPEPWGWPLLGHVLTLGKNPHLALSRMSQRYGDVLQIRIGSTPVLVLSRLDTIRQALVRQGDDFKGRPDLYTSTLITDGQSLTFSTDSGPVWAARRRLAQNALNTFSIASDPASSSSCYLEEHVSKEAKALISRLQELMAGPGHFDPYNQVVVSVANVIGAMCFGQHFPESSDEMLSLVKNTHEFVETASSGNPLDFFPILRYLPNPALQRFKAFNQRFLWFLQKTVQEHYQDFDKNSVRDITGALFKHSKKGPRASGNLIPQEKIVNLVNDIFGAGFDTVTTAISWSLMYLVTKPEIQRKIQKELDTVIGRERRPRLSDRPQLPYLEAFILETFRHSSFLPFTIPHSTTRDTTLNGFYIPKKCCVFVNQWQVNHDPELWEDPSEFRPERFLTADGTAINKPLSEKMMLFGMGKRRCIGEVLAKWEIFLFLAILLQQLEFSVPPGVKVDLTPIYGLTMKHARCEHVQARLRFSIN

cells [23] = format: functional, cell-based
Streptococcus = experiment: GAS UMAA2166 growth inhibition – luminescence, BacTiterGlo, counter-screen for streptokinase expression inhibitor project, dose response (AID 1915); format: functional, organism-based;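 also: potency for reduction of bacterial viability or growth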
cells [24] = format: functional, cell-based; remark: listed apart in the source
[25] = tested on: Streptococcus sp. 'group A'; experiment: Streptococcus pyogenes SK(-)GAS viability under kanamycin – luminescence, BacTiterGlo, confirmation, counter-screen for streptokinase expression inhibitor project, dose response (AID 1900); format: functional, organism-based
INS1 = experiment: INS-1E survival protection against cytokine death – cell-based, luminescence, retest, dose response (AID 449756); format: functional; conditions: Rattus norvegicus;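 also: cell death triggered by IL-1 beta plus TNF-alpha plus IFN-gamma mixture; protective hits raise ATP signal compared with cytokine alone wells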

Sequence of DNA dC->dU-editing enzyme APOBEC-3A (P31941 whole entry): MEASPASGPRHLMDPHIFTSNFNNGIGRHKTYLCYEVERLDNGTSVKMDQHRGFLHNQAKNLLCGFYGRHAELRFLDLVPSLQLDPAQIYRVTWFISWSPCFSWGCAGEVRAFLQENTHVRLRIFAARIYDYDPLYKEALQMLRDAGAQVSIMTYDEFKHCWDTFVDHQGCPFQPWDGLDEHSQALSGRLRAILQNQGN
T4 sequence (Q9HC16 whole entry): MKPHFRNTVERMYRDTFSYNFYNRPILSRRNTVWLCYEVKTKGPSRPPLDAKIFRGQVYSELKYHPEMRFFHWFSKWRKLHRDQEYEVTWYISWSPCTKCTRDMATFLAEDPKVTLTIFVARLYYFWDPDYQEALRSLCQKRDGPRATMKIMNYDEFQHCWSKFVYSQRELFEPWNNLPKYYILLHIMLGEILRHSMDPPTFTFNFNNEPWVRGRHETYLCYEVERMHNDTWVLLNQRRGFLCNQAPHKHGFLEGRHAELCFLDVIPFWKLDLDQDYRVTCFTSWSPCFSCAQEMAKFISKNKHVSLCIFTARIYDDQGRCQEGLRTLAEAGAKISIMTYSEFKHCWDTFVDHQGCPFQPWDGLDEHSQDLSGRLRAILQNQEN
T5 sequence (Q9UBE0 whole entry): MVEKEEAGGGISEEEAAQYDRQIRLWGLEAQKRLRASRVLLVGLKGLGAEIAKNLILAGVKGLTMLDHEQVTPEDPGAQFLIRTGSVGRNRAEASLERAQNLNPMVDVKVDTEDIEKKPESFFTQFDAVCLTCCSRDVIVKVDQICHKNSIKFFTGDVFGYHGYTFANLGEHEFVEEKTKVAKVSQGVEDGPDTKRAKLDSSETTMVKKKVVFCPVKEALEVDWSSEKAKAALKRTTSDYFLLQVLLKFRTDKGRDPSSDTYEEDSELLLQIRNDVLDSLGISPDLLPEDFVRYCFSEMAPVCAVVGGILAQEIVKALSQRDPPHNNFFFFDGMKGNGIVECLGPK
T5 sequence (Q9UBT2 whole entry): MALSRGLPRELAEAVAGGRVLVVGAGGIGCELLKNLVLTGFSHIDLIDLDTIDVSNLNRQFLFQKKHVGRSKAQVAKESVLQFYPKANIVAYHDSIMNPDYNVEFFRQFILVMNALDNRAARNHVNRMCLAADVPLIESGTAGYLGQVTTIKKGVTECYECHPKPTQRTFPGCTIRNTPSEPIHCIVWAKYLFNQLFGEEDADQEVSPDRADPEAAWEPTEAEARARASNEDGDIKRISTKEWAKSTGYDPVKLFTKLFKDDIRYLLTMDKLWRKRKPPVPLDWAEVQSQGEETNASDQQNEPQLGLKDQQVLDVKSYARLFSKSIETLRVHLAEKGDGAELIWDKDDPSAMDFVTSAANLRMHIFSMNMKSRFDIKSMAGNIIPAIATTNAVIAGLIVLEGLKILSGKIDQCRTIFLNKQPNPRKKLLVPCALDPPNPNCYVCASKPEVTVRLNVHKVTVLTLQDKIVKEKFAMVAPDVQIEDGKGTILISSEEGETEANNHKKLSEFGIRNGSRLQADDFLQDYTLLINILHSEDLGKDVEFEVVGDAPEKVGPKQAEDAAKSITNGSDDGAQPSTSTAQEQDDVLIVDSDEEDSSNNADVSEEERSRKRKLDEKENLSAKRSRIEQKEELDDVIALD
T2 sequence (P08659 whole entry): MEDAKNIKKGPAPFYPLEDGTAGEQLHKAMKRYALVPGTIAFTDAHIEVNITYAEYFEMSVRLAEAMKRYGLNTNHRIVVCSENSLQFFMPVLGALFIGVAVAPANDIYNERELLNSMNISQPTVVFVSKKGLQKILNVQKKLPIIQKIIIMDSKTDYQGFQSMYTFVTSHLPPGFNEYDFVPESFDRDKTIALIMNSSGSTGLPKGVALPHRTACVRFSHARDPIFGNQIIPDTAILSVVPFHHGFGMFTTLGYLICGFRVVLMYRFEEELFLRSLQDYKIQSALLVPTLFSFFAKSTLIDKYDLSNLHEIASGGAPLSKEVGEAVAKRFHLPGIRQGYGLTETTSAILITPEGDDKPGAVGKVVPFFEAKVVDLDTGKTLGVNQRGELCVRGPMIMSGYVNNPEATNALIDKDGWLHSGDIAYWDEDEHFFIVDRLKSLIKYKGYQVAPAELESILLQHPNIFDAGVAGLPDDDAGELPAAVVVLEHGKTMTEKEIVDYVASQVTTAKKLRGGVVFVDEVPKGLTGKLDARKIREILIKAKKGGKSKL
Sequence of Voltage-dependent T-type calcium channel subunit alpha-1H (O95180 whole entry): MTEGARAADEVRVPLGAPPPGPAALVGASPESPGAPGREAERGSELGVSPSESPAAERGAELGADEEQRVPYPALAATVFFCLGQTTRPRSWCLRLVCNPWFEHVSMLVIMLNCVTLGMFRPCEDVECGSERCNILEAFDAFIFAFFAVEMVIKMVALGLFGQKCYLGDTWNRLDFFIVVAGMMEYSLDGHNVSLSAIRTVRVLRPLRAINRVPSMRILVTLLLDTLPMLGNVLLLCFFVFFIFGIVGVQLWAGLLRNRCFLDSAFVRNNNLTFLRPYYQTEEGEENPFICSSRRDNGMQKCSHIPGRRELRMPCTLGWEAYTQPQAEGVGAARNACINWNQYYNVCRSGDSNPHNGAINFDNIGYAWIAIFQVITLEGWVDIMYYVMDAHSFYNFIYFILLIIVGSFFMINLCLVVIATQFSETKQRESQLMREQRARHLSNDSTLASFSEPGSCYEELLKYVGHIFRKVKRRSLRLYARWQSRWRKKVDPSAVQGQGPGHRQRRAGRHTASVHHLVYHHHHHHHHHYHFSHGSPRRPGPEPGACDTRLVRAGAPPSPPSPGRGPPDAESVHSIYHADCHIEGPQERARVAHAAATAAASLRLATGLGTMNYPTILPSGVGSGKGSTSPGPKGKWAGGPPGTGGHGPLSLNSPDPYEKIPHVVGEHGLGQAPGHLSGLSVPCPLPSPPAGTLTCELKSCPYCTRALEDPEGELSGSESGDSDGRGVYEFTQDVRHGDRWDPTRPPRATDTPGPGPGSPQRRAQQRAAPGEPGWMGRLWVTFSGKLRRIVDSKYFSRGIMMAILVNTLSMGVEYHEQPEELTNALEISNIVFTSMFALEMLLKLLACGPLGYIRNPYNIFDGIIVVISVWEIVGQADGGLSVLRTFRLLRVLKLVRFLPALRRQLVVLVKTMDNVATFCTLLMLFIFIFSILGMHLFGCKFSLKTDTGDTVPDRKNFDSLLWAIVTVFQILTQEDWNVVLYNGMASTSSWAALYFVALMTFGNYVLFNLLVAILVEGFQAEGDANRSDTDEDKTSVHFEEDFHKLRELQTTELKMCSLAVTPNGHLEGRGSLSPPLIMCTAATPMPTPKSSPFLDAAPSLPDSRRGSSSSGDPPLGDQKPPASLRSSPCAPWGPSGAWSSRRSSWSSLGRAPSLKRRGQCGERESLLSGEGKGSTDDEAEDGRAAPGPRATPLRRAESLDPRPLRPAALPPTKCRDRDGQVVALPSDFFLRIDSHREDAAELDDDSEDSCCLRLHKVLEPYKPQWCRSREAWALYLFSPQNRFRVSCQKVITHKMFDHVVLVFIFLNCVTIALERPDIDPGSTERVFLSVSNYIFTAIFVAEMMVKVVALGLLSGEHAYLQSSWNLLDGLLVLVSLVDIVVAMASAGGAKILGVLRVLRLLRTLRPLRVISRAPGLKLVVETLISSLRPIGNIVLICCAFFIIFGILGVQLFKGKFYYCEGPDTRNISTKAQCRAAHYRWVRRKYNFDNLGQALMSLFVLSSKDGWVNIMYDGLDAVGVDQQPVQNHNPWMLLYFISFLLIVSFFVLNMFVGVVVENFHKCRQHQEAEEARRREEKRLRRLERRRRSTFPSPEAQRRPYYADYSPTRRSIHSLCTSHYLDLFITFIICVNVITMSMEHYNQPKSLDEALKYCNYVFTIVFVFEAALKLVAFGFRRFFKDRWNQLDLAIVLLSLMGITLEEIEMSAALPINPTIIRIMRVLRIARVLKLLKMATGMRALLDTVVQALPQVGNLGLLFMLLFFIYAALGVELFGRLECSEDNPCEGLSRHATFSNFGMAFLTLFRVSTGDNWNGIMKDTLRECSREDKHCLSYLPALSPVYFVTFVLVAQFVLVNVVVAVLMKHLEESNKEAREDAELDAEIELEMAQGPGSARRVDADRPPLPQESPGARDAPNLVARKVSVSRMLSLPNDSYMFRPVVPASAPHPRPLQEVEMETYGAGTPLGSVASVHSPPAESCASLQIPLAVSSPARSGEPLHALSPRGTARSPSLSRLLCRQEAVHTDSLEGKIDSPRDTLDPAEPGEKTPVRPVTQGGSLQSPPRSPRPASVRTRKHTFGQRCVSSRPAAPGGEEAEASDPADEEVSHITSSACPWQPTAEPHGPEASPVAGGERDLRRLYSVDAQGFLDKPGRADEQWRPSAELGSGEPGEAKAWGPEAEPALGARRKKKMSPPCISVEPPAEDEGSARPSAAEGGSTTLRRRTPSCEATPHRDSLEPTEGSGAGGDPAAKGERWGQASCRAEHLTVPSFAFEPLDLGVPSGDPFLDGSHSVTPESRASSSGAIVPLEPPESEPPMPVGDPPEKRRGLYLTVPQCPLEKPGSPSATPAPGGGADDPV
Sequence of Photoreceptor-specific nuclear receptor (Q9Y5X4 whole entry): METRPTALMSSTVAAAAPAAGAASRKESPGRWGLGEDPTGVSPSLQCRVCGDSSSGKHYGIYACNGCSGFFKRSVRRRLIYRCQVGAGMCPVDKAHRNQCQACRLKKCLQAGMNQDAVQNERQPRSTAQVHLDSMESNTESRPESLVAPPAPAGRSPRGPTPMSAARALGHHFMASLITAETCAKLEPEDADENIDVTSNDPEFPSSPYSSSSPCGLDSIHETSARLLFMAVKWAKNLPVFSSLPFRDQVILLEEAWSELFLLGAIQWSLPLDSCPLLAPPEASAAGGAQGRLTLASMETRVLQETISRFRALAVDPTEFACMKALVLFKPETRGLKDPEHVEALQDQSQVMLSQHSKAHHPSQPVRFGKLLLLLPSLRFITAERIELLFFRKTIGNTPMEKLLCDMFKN

## O=C(O)CN1C(=O)/C(=C\c2cccc(OCc3ccccc3)c2)SC1=S
Genome polyprotein
  IC50: 42.2 µM (active)
[1]
  AC50: 4.52 µM (active)

## Nc1ccc(-c2nc3c(Cl)cc(N)cc3[nH]2)cc1
Large T antigen
  IC50: 9.32 µM (active)
HT-1080
  EC50: > 50 µM (not active)
[2]
  AC50: 3.76 µM (active)
[3]
  EC50: 7.08 µM (active)
[4]
  EC50: 0.21 µM (active)
[5]
  EC50: < 0.2 µM (active)
[6]
  EC50: 9.81 µM (active)
[1]
  AC50: 0.556 µM (active)

## CCOCCCNC(=O)c1cn(CC(C)C)c(=O)c2c1c1ccccc1n2C
[7]
  IC50: > 20 µM (inactive)

## CC(Sc1nnc(-c2cccs2)n1Cc1ccccc1)C(=O)NCc1ccc2c(c1)OCO2 (centres undefined)
[8]
  EC50: 9.04 µM (active)

## COc1ccc(NC(=O)c2cc3ccccn3n2)cc1
HT-1080
  EC50: 29.9 µM (active)
[9]
  EC50: 31.4 µM (active)
[10]
  EC50: > 112 µM (not active)
[5]
  EC50: 3.55 µM (active)

## CCSCCNC(=O)c1cc(-n2cnnc2)ccc1Cl
[11]
  IC50: 4.2 µM (active)
[12]
  IC50: 4.09 µM (active)

## CC(C(=O)N1c2ccccc2CCc2ccccc21)n1nnc(-c2ccc(N(C)C)cc2)n1 (centres undefined)
[8]
  EC50: 4.2 µM (active)

## O=C1NC(=O)N(Cc2ccco2)C(=O)/C1=C\c1cccn1CCOc1ccc(Cl)cc1
[13]
  CC50: 24.2 µM (active)
SUMO-activating enzyme [14]
  IC50: 35.7 µM (active)
SUMO-activating enzyme [15]
  IC50: 5.71 µM (active)

## COC(=O)CCCC[C@H]1SC[C@H]2NC(=O)N[C@]21O
[16]
  IC50: 1.92 µM (active)
[17]
  IC50: 0.389 µM (active)

## CCN1CCN(Cc2ccc(NC(=O)c3ccc(C)c(NC(=O)c4cc(-c5ccc(Br)cc5)[nH]n4)c3)cc2C(F)(F)F)CC1
[18]
  EC50: > 30 µM (not active)
[19]
  EC50: 1.53 µM (active)
HEK293
  AC50: 0.741 µM (active)
[20]
  AC50: 3.4 µM (active)
[7]
  IC50: > 20 µM (inactive)

## Cc1noc(C)c1CSc1nc2cc(S(=O)(=O)N3CCOCC3)ccc2o1
[21]
  IC50: 50.7 µM (active)

## Cc1ccc(C)c(N2CCN(C(c3ccc(N(C)C)cc3)c3nnnn3C(C)(C)C)CC2)c1 (centres undefined)
Protein skinhead-1
  IC50: > 100 µM (inactive)
[8]
  EC50: 4.2 µM (active)

## O=C(COc1ccc(CO)cc1Cl)Nc1ccc(F)cc1
HT-1080
  EC50: > 50 µM (not active)
[5]
  EC50: > 100 µM (not active)

## CCC(Sc1nc(O)c(C#N)c(-c2ccccc2)n1)C(=O)Nc1cc(C)on1 (centres undefined)
[16]
  IC50: 4.41 µM (active)
[17]
  IC50: > 39.8 µM (not active)

## CC(C)CSC1=NSC2=NC(=O)/C(=C\c3ccccc3)C(=N)N12
Genome polyprotein
  IC50: 51.8 µM (active)

## CC[N+]1(CC)CC2CCC(C)(C1)C2(C)C (centres undefined)
[22]
  IC50: 12.1 µM (active)
[11]
  IC50: 2.28 µM (active)
[12]
  IC50: 3.3 µM (active)

## COc1ccc(CCNC(=O)C2CCCN(Cc3nc(-c4cccc(Cl)c4)oc3C)C2)cc1OC (centres undefined)
[18]
  EC50: > 60 µM (not active)
[19]
  EC50: 0.145 µM (active)
[8]
  EC50: 5.34 µM (active)
Cytochrome P450 2C9
  AC50: 6.31 µM (inconclusive)
Cytochrome P450 1A2
  AC50: 15.8 µM (inconclusive)

## O=C(N/N=C/c1cc(Br)cc(Br)c1O)c1ccncc1
Cells [23]
  EC50: > 350 µM (not active)
Streptococcus
  EC50: 2.5 µM (active)
Cells [24]
  EC50: 24.8 µM (active)
[25]
  EC50: 0.807 µM (active)
INS1
  AC50: 2.64 µM (active)
SUMO-activating enzyme [14]
  IC50: 8.52 µM (active)
SUMO-activating enzyme [15]
  IC50: 5.03 µM (active)

## COc1ccc(CSCC(=O)N/N=C/c2ccc(OCC(=O)N3CCCCC3)cc2)cc1
[11]
  IC50: 5.86 µM (active)
[12]
  IC50: 6.1 µM (active)
